Assay results taken from patent US9382258B2, “Agents for treating pain and uses thereof” (AbbVie Inc., priority 2012, dated 2016).

What was measured:
[1] = system: Sprague Dawley rats (CCI neuropathic pain); test: Chronic constriction injury (CCI) model of neuropathic pain, tactile allodynia by von Frey filaments; format: in vivo, rat; conditions: male Sprague Dawley rats, 10 mg/kg orally in 10% dimethyl sulfoxide/polyethylene glycol, mechanical allodynia 60 minutes after administration, calculated from log g paw withdrawal threshold
Description: Test compounds can be evaluated for analgesic effect in an in vivo model of neuropathic pain. Specifically, animals were prepared for testing, by use of a surgical procedure that induces neuropathic pain in one paw. IACUC guidelines for rodent survival surgery were followed. All surgical procedures were conducted on a clean, uncluttered surgical station. The area was wiped with a 70% ethanol solution before and after use. All instruments were sterilized by either autoclave or chemical sterilant (such as 2% glutaraldehyde>10 hours). Surgeons wore sterile gloves (for the initial procedure), clean lab coat or scrubs, hairnet or cap, and a half-mask respirator (when not working under a hood). Surgeons thoroughly washed their hands prior to donning sterile gloves. Gloves were disinfected in-between animals by cleansing with povidone iodine, chlorhexidine or 70% alcohol for at least 30 seconds. If multiple surgeries were performed, the instruments were cleaned and sterilized between procedures with hot glass beads (>10 seconds). To prevent thermal or chemical burns, the instruments were cooled by rinsing in sterile saline before use.
Male, Sprague Dawley® rats, 175-200 g were used for surgeries. To minimize post-operative dehydration/maintain blood volume during the surgery, warmed sterile saline or Lactate Ringers solution at 10-15 mL/kg was administered subcutaneously immediately before or after surgery. This facilitates better renal function and presumably anesthesia product excretion post surgery. For all surgical procedures, anesthesia was induced with 4-5% isoflurane. Anesthesia was maintained during surgery with 1-3% isoflurane. Following induction, the surgical site was carefully shaved and the exposed area was aseptically prepared with povidone-iodine scrub solution and 70% ethanol 2-3 times.
Chronic constriction injury (CCI), a model of neuropathic pain, was produced by following the method of Bennett and Xie (Bennett, G., et al. Pain, 1988, 33, 87-107). After site sterilization and anesthetic procedures outline above were completed, a 1.5 cm incision is made at the mid-thigh level to expose the biceps femoris and gluteous superficialis (right side), which were then separated by blunt dissection. The common sciatic nerve was exposed, isolated, and loosely ligated by four 5-0 chromic gut ligatures with <1 mm spacing between each. The surgical site was closed in layers—muscle is closed with 6.0 absorbable sutures, and the skin closed with wound clips. Animals were allowed to recover on a warming plate and were returned to their home cages when fully ambulatory. Animals were not be used for testing until at least 10 days following surgery.
To measure mechanical sensitivity, tactile allodynia was measured using calibrated von Frey filaments (Stoelting, Wood Dale, Ill.) as described by Chaplan et al. (Chaplan S., et al. J of Neuroscience Methods 1994, 53, 55-63). Filament strengths used were: 0.4, 0.6, 1.0, 2, 4, 6, 8, and 15 g. Rats were placed into inverted individual plastic containers (20×12.5×20 cm) on top of a suspended wire mesh grid, and acclimated to the test chambers for at least 20 minutes. Filaments were applied perpendicular to the mid-plantar paw surface with enough force to cause slight buckling and held in place for 6-8 seconds. Positive responses included an abrupt withdrawal of the paw from the stimulus or flinching behavior immediately following removal of the stimulus. The maximum force applied was 15 g. The 50% paw withdrawal threshold (PWT) was calculated in grams (g) using the up-down method of Dixon (Dixon W. Ann Rev Pharmacol Toxicol 1980, 20, 441-462). […] All compounds were orally administered at 10 mg/kg in 10% dimethyl sulfoxide/polyethylene glycol at a volume of 2.0 mL/kg, and mechanical allodynia was determined 60 minutes following compound administration
The data are reported as log g values and the percentage of maximum possible effect (% MPE) is calculated using log g values with the Formula: […]

[2] = target: T1, human Cav2.2 (Homo sapiens, UniProt Q00975); test: Calcium flux (FLIPR, Calcium 4 dye) in IMR32 cells endogenously expressing human Cav2.2; format: cell-based; conditions: 60 minute pre-incubation, 2 μM nifedipine to block L-type channels, depolarized with 80 mM KCl, 5 mM CaCl2, average of n≥2 runs unless marked *
T1 construct: cells endogenously expressing human Cav2.2; endogenous in cells; host or cells: IMR32 cells
T1 sequence (Q00975 whole entry): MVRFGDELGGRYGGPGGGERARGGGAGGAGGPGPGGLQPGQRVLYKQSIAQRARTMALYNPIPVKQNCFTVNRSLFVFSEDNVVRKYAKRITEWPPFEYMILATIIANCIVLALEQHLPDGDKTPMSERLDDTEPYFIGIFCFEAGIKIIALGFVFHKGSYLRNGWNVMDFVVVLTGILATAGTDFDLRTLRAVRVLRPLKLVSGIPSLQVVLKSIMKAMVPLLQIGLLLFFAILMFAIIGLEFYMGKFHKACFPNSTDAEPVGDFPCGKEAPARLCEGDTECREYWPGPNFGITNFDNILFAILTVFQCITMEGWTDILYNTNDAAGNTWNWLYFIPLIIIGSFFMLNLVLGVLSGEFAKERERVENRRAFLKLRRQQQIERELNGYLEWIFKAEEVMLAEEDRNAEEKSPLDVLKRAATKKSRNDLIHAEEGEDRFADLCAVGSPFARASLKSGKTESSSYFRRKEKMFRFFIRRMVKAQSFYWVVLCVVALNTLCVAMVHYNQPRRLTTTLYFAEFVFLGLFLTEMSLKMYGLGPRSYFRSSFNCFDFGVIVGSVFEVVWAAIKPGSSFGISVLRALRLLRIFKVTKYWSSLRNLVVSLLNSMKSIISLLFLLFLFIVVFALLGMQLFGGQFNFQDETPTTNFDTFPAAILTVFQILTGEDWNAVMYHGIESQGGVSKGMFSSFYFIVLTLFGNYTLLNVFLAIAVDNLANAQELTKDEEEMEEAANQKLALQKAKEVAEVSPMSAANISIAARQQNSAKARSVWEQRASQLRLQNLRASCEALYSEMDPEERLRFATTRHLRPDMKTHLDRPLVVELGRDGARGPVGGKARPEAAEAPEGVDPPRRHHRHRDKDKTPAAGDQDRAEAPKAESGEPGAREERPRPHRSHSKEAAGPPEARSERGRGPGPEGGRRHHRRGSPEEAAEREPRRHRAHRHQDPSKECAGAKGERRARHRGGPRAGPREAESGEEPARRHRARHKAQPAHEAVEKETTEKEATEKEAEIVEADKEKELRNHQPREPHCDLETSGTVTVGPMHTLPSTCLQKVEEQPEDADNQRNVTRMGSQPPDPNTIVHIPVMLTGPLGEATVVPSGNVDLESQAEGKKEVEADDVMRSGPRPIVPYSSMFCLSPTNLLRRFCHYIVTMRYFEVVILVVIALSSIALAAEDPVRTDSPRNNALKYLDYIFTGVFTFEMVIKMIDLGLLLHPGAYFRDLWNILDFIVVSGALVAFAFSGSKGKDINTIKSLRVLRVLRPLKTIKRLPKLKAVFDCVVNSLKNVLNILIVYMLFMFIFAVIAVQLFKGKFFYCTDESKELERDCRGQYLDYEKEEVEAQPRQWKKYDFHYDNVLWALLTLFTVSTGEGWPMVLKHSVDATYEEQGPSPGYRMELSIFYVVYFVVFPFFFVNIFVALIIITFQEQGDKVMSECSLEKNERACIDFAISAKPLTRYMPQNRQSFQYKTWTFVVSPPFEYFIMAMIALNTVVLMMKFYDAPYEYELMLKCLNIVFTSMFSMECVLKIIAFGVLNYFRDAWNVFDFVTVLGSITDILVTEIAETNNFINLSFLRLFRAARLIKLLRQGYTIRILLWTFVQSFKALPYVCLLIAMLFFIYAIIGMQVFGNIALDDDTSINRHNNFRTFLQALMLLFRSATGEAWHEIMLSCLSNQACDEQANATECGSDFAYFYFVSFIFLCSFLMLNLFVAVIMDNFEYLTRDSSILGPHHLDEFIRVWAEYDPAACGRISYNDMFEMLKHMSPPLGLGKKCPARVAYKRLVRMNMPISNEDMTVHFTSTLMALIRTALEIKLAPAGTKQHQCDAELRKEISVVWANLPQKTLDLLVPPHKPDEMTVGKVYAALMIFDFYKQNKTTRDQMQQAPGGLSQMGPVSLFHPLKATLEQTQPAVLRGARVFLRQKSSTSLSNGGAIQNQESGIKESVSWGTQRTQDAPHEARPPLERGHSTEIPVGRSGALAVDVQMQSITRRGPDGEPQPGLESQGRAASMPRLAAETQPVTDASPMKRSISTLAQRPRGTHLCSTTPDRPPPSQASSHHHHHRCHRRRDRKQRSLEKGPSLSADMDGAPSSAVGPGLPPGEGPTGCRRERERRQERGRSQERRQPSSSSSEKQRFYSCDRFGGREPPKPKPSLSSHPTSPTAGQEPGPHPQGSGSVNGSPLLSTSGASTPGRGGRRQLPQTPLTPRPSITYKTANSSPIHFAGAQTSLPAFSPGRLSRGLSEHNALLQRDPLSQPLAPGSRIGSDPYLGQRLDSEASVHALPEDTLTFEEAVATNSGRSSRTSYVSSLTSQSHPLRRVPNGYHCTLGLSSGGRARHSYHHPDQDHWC
T1 sequence (P54284 whole entry partner): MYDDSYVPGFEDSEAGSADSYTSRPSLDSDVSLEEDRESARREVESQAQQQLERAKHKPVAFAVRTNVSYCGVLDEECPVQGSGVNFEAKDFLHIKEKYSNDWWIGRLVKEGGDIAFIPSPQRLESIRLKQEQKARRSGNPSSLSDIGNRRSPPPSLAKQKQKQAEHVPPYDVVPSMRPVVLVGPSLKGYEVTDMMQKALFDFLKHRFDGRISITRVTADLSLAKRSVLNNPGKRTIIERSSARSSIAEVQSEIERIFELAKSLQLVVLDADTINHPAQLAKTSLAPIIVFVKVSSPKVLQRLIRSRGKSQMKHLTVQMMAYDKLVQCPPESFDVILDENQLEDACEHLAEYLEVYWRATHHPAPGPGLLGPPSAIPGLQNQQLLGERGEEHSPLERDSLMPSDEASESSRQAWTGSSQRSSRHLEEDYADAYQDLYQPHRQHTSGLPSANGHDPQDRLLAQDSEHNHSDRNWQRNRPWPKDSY
T1 sequence (P54289 25-956 partner limits assumed): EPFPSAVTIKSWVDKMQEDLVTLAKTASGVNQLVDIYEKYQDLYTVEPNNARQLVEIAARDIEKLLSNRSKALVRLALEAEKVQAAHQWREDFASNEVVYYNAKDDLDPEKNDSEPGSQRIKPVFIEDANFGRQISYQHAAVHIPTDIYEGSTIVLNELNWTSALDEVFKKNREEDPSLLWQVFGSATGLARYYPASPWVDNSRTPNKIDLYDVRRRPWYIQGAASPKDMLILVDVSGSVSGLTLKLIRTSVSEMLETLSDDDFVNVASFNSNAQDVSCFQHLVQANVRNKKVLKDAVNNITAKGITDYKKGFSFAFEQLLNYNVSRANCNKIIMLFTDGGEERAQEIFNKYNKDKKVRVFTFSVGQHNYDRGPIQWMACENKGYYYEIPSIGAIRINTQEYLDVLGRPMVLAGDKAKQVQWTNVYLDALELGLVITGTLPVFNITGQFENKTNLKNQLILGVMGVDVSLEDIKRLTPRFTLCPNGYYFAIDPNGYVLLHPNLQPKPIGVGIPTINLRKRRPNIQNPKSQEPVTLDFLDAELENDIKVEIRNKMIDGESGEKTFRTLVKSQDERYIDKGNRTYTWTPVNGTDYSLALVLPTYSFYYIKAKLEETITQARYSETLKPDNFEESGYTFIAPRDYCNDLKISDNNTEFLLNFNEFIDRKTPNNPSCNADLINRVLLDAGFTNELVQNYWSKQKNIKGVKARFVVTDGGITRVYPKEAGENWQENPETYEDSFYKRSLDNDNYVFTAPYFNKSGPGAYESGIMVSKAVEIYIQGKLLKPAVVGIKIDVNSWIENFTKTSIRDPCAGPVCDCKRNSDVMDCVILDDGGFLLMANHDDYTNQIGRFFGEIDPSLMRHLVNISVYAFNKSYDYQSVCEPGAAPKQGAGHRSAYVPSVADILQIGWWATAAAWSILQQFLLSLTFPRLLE
T1 sequence (P54289 957-1103 partner limits assumed): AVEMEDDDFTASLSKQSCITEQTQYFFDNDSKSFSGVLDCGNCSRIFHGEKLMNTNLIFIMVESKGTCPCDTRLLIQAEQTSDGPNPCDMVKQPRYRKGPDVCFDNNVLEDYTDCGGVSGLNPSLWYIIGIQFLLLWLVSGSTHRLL
Description: Compounds were tested for effect on calcium flux in cells endogenously expressing human Cav2.2. Specifically, IMR32 cells endogenously expressing human Cav2.2 were assayed for Ca^2+ influx using a no-wash calcium indicator dye (Calcium 4 dye: Molecular Probes) and FLIPR technology (Lubin, M L; et al. Assay and Drug Development Technologies, 2006, 4(6), 689-694). The IMR32 cells were maintained in MEM media containing 10% (v/v) FBS, 1% (v/v) antibiotic/antimitotic, 1% (v/v) sodium pyruvate and 1% (v/v) MEM NEAA. Following dissociation in 0.05% (v/v) trypsin/EDTA, cells were seeded into black 1×96-well plates (Corning Cellbind) at a density of 1−1.2×10^5 cells/well and incubated in the maintenance media above for 48 hours at 37° C. Immediately prior to performing the assay the media was removed and cells were loaded for 1.5 hours with 1× Calcium 4 dye prepared in HBSS (137 mM NaCl, 5.4 mM KCl, 0.25 mM Na2HPO4, 0.44 mM KH2PO4, 1.3 mM CaCl2, 1 mM MgSO4, 4.2 mM NaHCO3) containing HEPES pH 7.4 at room temperature. After dye loading and a subsequent 60 minute pre-incubation with compounds (full log dilutions from 10 μM to 0.1 nM) in the presence of 1.3 mM CaCl2 and 2 μM nifedipine to block endogenous L-type channels, the external Ca^2+ concentration was increased to 5 mM CaCl2 and the cells concomitantly depolarized with 80 mM KCl to assay channel activity.
To determine the IC50 values, the percent inhibition of the compound at each concentration was determined relative to the activity in the absence of inhibitor, and data was fitted using non-linear regression sigmoidal dose response curve analysis with GraphPad Prism®. Unless otherwise indicated (*), the reported values are average values from at least two runs (i.e., n≧2).

O=C(c1cccc(C(F)(F)F)c1)N1CCCN2C[C@H](Oc3cnc(C4CC4)cn3)C[C@H]2C1 [Example 7, [(8R,9aS)-8-[(5-cyclopropylpyrazin-2-yl)oxy]hexahydro-1H-pyrrolo[1,2-a][1,4]diazepin-2(3H)-yl][3-(trifluoromethyl)phenyl]methanone]
% MPE [1]: 44%
IC50 [2]: 1.66 µM

O=C(c1ccc(C(F)(F)F)cc1)N1CCCN2C[C@H](Oc3cnc(C4CC4)cn3)C[C@H]2C1 [Example 13, [(8R,9aS)-8-[(5-cyclopropylpyrazin-2-yl)oxy]hexahydro-1H-pyrrolo[1,2-a][1,4]diazepin-2(3H)-yl][4-(trifluoromethyl)phenyl]methanone]
% MPE [1]: 40%
IC50 [2]: 0.88 µM

FC(F)(F)c1ccc(N2CCCN3C[C@H](Oc4cnc(C5CC5)cn4)C[C@H]3C2)nc1 [Example 19, (8R,9aS)-8-[(5-cyclopropylpyrazin-2-yl)oxy]-2-[5-(trifluoromethyl)pyridin-2-yl]octahydro-1H-pyrrolo[1,2-a][1,4]diazepane]
% MPE [1]: 36%
IC50 [2]: 1.21 µM

O=C(c1cccc(C(F)(F)F)c1)N1CCC(=O)N2C[C@H](Oc3cnc(C4CC4)cn3)C[C@H]2C1 [Example 32, (8R,9aS)-8-[(5-cyclopropylpyrazin-2-yl)oxy]-2-[3-(trifluoromethyl)benzoyl]octahydro-5H-pyrrolo[1,2-a][1,4]diazepin-5-one]
% MPE [1]: 46%
IC50 [2]: 1.72 µM

O=C1CCN(Cc2cccc(C(F)(F)F)c2)C[C@@H]2C[C@@H](Oc3cnc(C4CC4)cn3)CN12 [Example 42, (8R,9aS)-8-[(5-cyclopropylpyrazin-2-yl)oxy]-2-[3-(trifluoromethyl)benzyl]octahydro-5H-pyrrolo[1,2-a][1,4]diazepin-5-one]
% MPE [1]: 27%
IC50 [2]: 0.92 µM

O=C1CCN(Cc2ccc(OC(F)(F)F)cc2)C[C@@H]2C[C@@H](Oc3cnc(C4CC4)cn3)CN12 [Example 44, (8R,9aS)-8-[(5-cyclopropylpyrazin-2-yl)oxy]-2-[4-(trifluoromethoxy)benzyl]octahydro-5H-pyrrolo[1,2-a][1,4]diazepin-5-one]
% MPE [1]: 48%
IC50 [2]: 1.65 µM

O=C1CCN(c2ccc(C(F)(F)F)cn2)C[C@@H]2C[C@@H](Oc3cnc(C4CC4)cn3)CN12 [Example 47, (8R,9aS)-8-[(5-cyclopropylpyrazin-2-yl)oxy]-2-[5-(trifluoromethyl)pyridin-2-yl]octahydro-5H-pyrrolo[1,2-a][1,4]diazepin-5-one]
% MPE [1]: 73%
IC50 [2]: 2.52 µM

O=C1CCN(Cc2ccc(OC(F)(F)F)cc2)C[C@H]2C[C@@H](Oc3cnc(C4CC4)cn3)CN12 [Example 56, (8R,9aR)-8-[(5-cyclopropylpyrazin-2-yl)oxy]-2-[4-(trifluoromethoxy)benzyl]octahydro-5H-pyrrolo[1,2-a][1,4]diazepin-5-one]
IC50 [2]: 2.5 µM

O=C(c1cccc(C(F)(F)F)c1)N1CCC(=O)N2C[C@H](Oc3cnc(C4CC4)cn3)C[C@@H]2C1 [Example 57, (8R,9aR)-8-[(5-cyclopropylpyrazin-2-yl)oxy]-2-[3-(trifluoromethyl)benzoyl]octahydro-5H-pyrrolo[1,2-a][1,4]diazepin-5-one]
IC50 [2]: 11.2 µM

O=C1CCN(S(=O)(=O)c2ccc(C(F)(F)F)cc2)C[C@H]2C[C@@H](Oc3cnc(C4CC4)cn3)CN12 [Example 58, (8R,9aR)-8-[(5-cyclopropylpyrazin-2-yl)oxy]-2-{[4-(trifluoromethyl)phenyl]sulfonyl}octahydro-5H-pyrrolo[1,2-a][1,4]diazepin-5-one]
IC50 [2]: 3.75 µM

O=C1CCN(Cc2ccc(OC(F)(F)F)cc2)C[C@@H]2C[C@H](Oc3cnc(C4CC4)cn3)CN12 [Example 59, (8S,9aS)-8-[(5-cyclopropylpyrazin-2-yl)oxy]-2-[4-(trifluoromethoxy)benzyl]octahydro-5H-pyrrolo[1,2-a][1,4]diazepin-5-one]
IC50 [2]: 3.17 µM

O=C(c1cccc(C(F)(F)F)c1)N1CCC(=O)N2C[C@@H](Oc3cnc(C4CC4)cn3)C[C@H]2C1 [Example 60, (8S,9aS)-8-[(5-cyclopropylpyrazin-2-yl)oxy]-2-[3-(trifluoromethyl)benzoyl]octahydro-5H-pyrrolo[1,2-a][1,4]diazepin-5-one]
IC50 [2]: 18.8 µM

O=C1CCN(S(=O)(=O)c2ccc(C(F)(F)F)cc2)C[C@@H]2C[C@H](Oc3cnc(C4CC4)cn3)CN12 [Example 61, (8S,9aS)-8-[(5-cyclopropylpyrazin-2-yl)oxy]-2-{[4-(trifluoromethyl)phenyl]sulfonyl}octahydro-5H-pyrrolo[1,2-a][1,4]diazepin-5-one]
IC50 [2]: 1.2 µM

O=C1CCN(Cc2ccc(OC(F)(F)F)cc2)C[C@H]2C[C@H](Oc3cnc(C4CC4)cn3)CN12 [Example 62, (8S,9aR)-8-[(5-cyclopropylpyrazin-2-yl)oxy]-2-[4-(trifluoromethoxy)benzyl]octahydro-5H-pyrrolo[1,2-a][1,4]diazepin-5-one]
IC50 [2]: 3.23 µM

O=C(c1cccc(C(F)(F)F)c1)N1CCC(=O)N2C[C@@H](Oc3cnc(C4CC4)cn3)C[C@@H]2C1 [Example 63, (8S,9aR)-8-[(5-cyclopropylpyrazin-2-yl)oxy]-2-[3-(trifluoromethyl)benzoyl]octahydro-5H-pyrrolo[1,2-a][1,4]diazepin-5-one]
IC50 [2]: 22.5 µM

O=C1CCN(S(=O)(=O)c2ccc(C(F)(F)F)cc2)C[C@H]2C[C@H](Oc3cnc(C4CC4)cn3)CN12 [Example 64, (8S,9aR)-8-[(5-cyclopropylpyrazin-2-yl)oxy]-2-{[4-(trifluoromethyl)phenyl]sulfonyl}octahydro-5H-pyrrolo[1,2-a][1,4]diazepin-5-one]
IC50 [2]: 2.2 µM

(8R,9aS)-8-[(5-cyclopropylpyrazin-2-yl)oxy]-2-{[3-(trifluoromethyl)phenyl]sulfonyl}octahydro-1H-pyrrolo[1,2-a][1,4]diazepane [Example 1]
IC50 [2]: 0.32 µM
